Laboratory results: patent publication US5268361A, “Hydroxyazido derivatives and related compounds as renin inhibitors” (SRI International, priority 1991, dated 1993)

Key:
[1] = animals; from cited publications; cited from earlier work
human kidney renin = target: T1, human kidney renin (Homo sapiens, UniProt P00797); experiment: Human renin enzyme assay with angiotensin I radioimmunoassay; format: biochemical; details: angiotensinogen substrate, pH 6.0 maleate buffer, 37° C., 50% reduction in the release of angiotensin I
T1 construct: 0.24 mGU human kidney renin; from tissue; host or cells: human kidney
T1 sequence (P00797 67-406): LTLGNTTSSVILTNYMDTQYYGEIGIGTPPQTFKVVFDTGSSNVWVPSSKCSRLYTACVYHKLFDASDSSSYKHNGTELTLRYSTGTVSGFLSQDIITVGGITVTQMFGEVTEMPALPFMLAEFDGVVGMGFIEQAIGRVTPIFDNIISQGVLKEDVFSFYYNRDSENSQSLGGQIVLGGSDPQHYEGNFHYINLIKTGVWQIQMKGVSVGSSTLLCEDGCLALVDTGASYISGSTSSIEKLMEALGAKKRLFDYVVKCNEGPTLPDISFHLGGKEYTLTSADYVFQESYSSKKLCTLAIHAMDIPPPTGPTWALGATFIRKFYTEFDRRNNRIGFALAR
Experimental: a. Human Renin Enzyme Assay. The human renin enzyme assay described by Sham et al., J. Med. Chem. 31:284-295 (1988) was carried out by mixing 0.24 mGU human kidney renin, 0.21 αμM of angiotensinogen in 0.135 M, pH 6.0, maleate buffer containing 3 mM EDTA, 1.4 mM PMSF, and 0.44% BSA. The total assay volume was 100 μl. All inhibitors were dissolved in DMSO first and diluted with 0.5% BSA to give the appropriate concentrations for testing. The final DMSO concentration in the assay mixture was kept constant at 1%. […] For assay, 90 μl of the above-mentioned maleate buffer containing the renin and inhibitor was preincubated at 37° C. for 5 min and the reaction was continued for 10 additional min after adding 10 μl of substrate. The reaction was stopped by immersion of all tubes in a dry ice acetone-methanol bath. All samples were thawed to 0.4° C. and an aliquot from each tube was taken for the Angiotensin I RIA assay.
b. Angiotensin I Radioimmunoassay. A 100 μl portions of 5% BSA containing a small aliquot of the above enzyme mixture was mixed with 100 μl of angiotensin I [^125 I] (500 mCi/mg) in 0.1M Tris-acetate buffer, pH 7.4 (one part angiotensin I in 50 parts buffer), and 500 μl of antiserum (the lyophilized powder was reconstituted with 125 ml of 0.1M Tris-acetate buffer, pH 7.4). The mixture was incubated at 4° C. for 18 to 24 h. At the end of the incubation, 1.0 mL of charcoal suspension (600 mg of charcoal in 50 mL of 0.1M Tris-acetate buffer, pH 7.4) was pipetted into each tube. The charcoal suspension was stirred constantly during the transfer. The samples were mixed and then centrifuged at 3000×g for 15 min. The supernatants were transferred into properly numbered tubed for gamma counting.
A reagent blank was carried out with each assay. The blank tube contained 100 μl of 5% bovine serum albumin (BSA), 100 μl of angiotensin I [^125 I], and 500 μl of 0.1M Tris-acetate buffer.
A standard curve was prepared with each set of experiments by mixing various amounts (5 to 0.1 ng/ml) of angiotensin I in 0.1M Tris-acetate buffer containing 5% BSA and the same amounts of ^125 I-angiotensin I and antiserum as for the RIA assay. The tubes containing the standards were treated exactly like those containing the samples. The amount of angiotensin I produced by the enzyme in each sample was calculated using an angiotensin I standard curve.
The whole process of RIA was carried out at 0° to 4° C. to avoid deterioration of antiserum and angiotensin I. Only polystyrene tubes were used. Polystyrene tubes had shown no affinity for antibody under the assay conditions described above.
An IC50 was calculated for each inhibitor tested by conducting the assay in the presence of different concentrations of inhibitor. The inhibitor concentration that caused a 50% reduction in the release of angiotensin I when compared to control (no inhibitor) values was then calculated.

Cynomolgus monkeys = experiment: In vivo efficacy: oral administration to Cynomolgus monkeys, blood pressure monitoring; details: salt-depleted, furosemide-pretreated male Cynomolgus monkeys; oral gavage 1.0 mg/kg
Experimental: b. In vivo efficacy: Oral activity of a number of the compounds of the invention was established by administration to Cynomolgus monkeys, a species known to be susceptible to the antihypertensive effect of renin inhibition. Two male monkeys, young adults approximately 3-6 kg at dosing, were tested over a six-week period. The animal room environment and photoperiod were controlled (temperature approximately 24° C., humidity 50±20%, 12 h light, 12 h dark), as was diet (low salt primate chow, plus discretionary supplements of fruit for at least 7 days prior to dosing). A diuretic (furosemide 1 mg/kg) was given daily by intravenous injection for 7 days prior to dosing.
The compounds of the invention were dissolved in 0.02 N HCl and prepared to the appropriate volume with sterile water. The pH of the solutions were adjusted to approximately 4.0 with 0.02 N NaOH. The solutions were then given orally by an oesophageal gavage at a dose level of 1.0 mg/kg, and a dose volume of 2 mL/kg body weight.
Prior to and following dosing, the animals were connected to an ECG and blood pressure monitor. Systolic, diastolic and mean blood pressure as well as heart rate were measured at 30 second intervals and recorded.

| Structure (SMILES) | IC50 (human kidney renin) [nM] | Oral activity [1] | Reduction in blood pressure (Cynomolgus monkeys) |
| --- | --- | --- | --- |
| COc1ccc(C[C@H](NC(=O)CC(C)(C)N)C(=O)N[C@@H](Cc2cnc[nH]2)C(=O)N[C@@H](CC2CCCCC2)[C@@H](O)[C@@H](O)CC(C)C)cc1 [Compound A-64662] |  | orally active in animals |  |
| CC(C)CC(N=[N+]=[N-])C(O)[C@H](CC(C)C)NC(=O)[C@H](Cc1c[nH]cn1)NC(=O)[C@H](Cc1cccc2ccccc12)NC(=O)OCc1ccccc1 (stereo partly drawn) [Compound I-5b, 4-Azido-6-(S)-[N^α -[N-benzyloxycarbonyl-3-(1-naphthyl)-L-alanyl]-L-histidyl]-amino-2,8-dimethyl-5-nonanol] | 190 |  |  |
| CC(C)C[C@H](N=[N+]=[N-])[C@H](O)[C@H](CC(C)C)NC(=O)[C@H](Cc1c[nH]cn1)NC(=O)[C@H](Cc1ccccc1)OC(=O)N1CCOCC1 [III-6, (4S, 5R, 6S)-4-Azido-5-hydroxy-2,8-dimethyl-6-[N^α -(2S-(morpholino-N-carbonyloxy)-3-phenylpropionyl)-L-histidyl]aminononane] | 110 |  |  |
| CC(C)C[C@H](N=[N+]=[N-])[C@H](O)[C@H](CC1CCCCC1)NC(=O)[C@H](Cc1c[nH]cn1)NC(=O)[C@H](Cc1ccccc1)NC(=O)CC(C)(C)N [IX-6] | 5.4 |  |  |

Now from value to compound, other results behind:

| IC50 (human kidney renin) [nM] | Structure (SMILES) | Oral activity [1] | Reduction in blood pressure (Cynomolgus monkeys) |
| --- | --- | --- | --- |
| 0.58 | CC(C)C[C@H](N=[N+]=[N-])[C@H](O)[C@H](CC1CCCCC1)NC(=O)[C@H](Cc1c[nH]cn1)NC(=O)[C@H](Cc1ccccc1)NC(=O)N1CCOCC1 [Compound V-4, (4S, 5R, 6S)-4-Azido-7-cyclohexyl-5-hydroxy-2-methyl-6-[N^α -(N-(morpholino-N-carbonyl)L-phenylalanyl)-L-histidyl]aminoheptane] |  |  |
| 0.006 | CC(C)C[C@H](N=[N+]=[N-])[C@H](O)[C@H](CC1CCCCC1)NC(=O)[C@H](Cc1c[nH]cn1)NC(=O)[C@H](Cc1ccccc1)CS(=O)(=O)C(C)(C)C [Compound X-2b, (4S, 5R, 6S)-4-Azido-7-cyclohexyl-5-hydroxy-2-methyl-6-[N^α -[(S)-2-benzyl-3-(tert-butylsulfonyl)-pripionyl]-L-histidyl]aminoheptane] |  | Reduction in blood pressure was seen within approximately 1 to 6 hours |
| 1.7 | CC(C)C[C@H](N=[N+]=[N-])[C@H](O)[C@H](CC1CCCCC1)NC(=O)[C@H](Cc1c[nH]cn1)NC(=O)[C@H](Cc1ccccc1)OC(=O)N1CCOCC1 [IV-7, (4S, 5R, 6S)-4-Azido-7-cyclohexyl-5-hydroxy-2-methyl-6-[N^α -(2S-(morpholino-N-carbonyloxy)-3-phenylpropionyl)-L-histidyl]aminoheptane] |  | Reduction in blood pressure was seen within approximately 1 to 6 hours |
| 0.64 | CC(C)C[C@H](N=[N+]=[N-])[C@H](O)[C@H](CC1CCCCC1)NC(=O)[C@H](Cc1c[nH]cn1)NC(=O)C(CC(=O)N1CCOCC1)Cc1ccccc1 (stereo partly drawn) [VI-6b, (4S, 5R, 6S)-4-Azido-6-[N^α -(2-benzyl-3-(morpholino-N-carbonyl)propionyl)-L-histidyl]amino-7-cyclohexyl-5-hydroxy-2-methylheptane] |  |  |
| 5.1 | CC(C)CC(N=[N+]=[N-])C(=O)C(CC1CCCCC1)NC(=O)[C@H](Cc1c[nH]cn1)NC(=O)[C@H](Cc1ccccc1)OC(=O)N1CCOCC1 (stereo partly drawn) [VII-2, 4-Azido-7-cyclohexyl-2-methyl-5-oxo-6-[N^α -(2S-(morpholino-N-carbonyloxy)-3-phenylpropionyl)-L-histidyl]amino heptane] |  |  |
| 0.85 | CC(C)C[C@H](N=[N+]=[N-])[C@H](O)[C@H](CC1CCCCC1)NC(=O)[C@H](Cc1c[nH]cn1)NC(=O)/C(=C/c1ccccc1)CC(=O)N1CCOCC1 [VIII-3, (4S, 5R, 6S)-4-Azido-7-cyclohexyl-5-hydroxy-2-methyl-6-[N^α -[(E)-2-[(4-morphorinylcarbonyl)-methyl]cinnamyl]-L-histidyl]aminoheptane] |  |  |
| 0.008 | COCCOCCN(C)C(=O)C[C@@H](Cc1ccccc1)C(=O)N[C@@H](Cc1c[nH]cn1)C(=O)N[C@@H](CC1CCCCC1)[C@@H](O)[C@H](CC(C)C)N=[N+]=[N-] [XI-2] |  |  |
